From US20250151721A1, “MOSQUITO ATTRACTANT COMPOSITIONS THAT MIMIC HUMAN ODOR IN THE MOSQUITO BRAIN” (TRUSTEES OF PRINCETON UNIVERSITY, priority 2021, published 2025)

Assays:
[1] = test system: broadly tuned (B) glomerulus of the antennal lobe; test: Two-photon calcium imaging of odour-evoked activity in the broadly tuned (B) glomerulus; format: in vivo, Aedes aegypti
From the text: (§1) We designed a two-photon microscope that incorporates both resonant scanning^69 and remote focusing^70,71 to achieve rapid, volumetric, in vivo neural imaging. Remote focusing allows rapid switching of the imaging plane by moving a small, lightweight mirror located upstream in the imaging path. […] In diagnostic tests, transition times for switching between two planes were less than 6 ms.
(§2) We custom-designed a mosquito holder with a 3D-printed plastic frame and thin stainless-steel plate (FIG. 2C, thickness 0.001 inch). A tiny mosquito-head-sized hole was photo-chemically etched on the plate (ETCHIT Company). To prepare for imaging, we anaesthetized a female on ice for ˜1 min, pushed the anterodorsal side of her head into the hole, and fixed it with UV glue (RapidFix 6121830ES). The antennae, maxillary palps, and proboscis remained below the metal plate and contacted neither the plate nor the glue. We added room-temperature saline (103 mM NaCl, 3 mM KCl, 5 mM TES, 26 mM NaHCO3, 1 mM NaH2PO4, 1.5 mM CaCl2), 4 mM MgCl2, 10 mM Trehalose, 10 mM Glucose; pH 7.1) to the holder and used sharp forceps to remove a section of the head capsule (including both cuticle and the edge of the eyes) from the part of the head protruding through the metal plate. During imaging, we continuously perfused saline bubbled with carbogen (5% CO2, 95% O2) through the holder and across the open head capsule at 125 ml/hour.
We used the ScanImage^72 package in Matlab to control the microscope and acquire images. For each individual, we chose either the right or left antennal lobe (AL) and recorded movies of odour-evoked activity (starting 7-30 sec before and continuing 20-60 sec after synthetic-odorant puffs; ˜30 sec before, ˜140 sec after puffs of complex extract). The movies covered the entire AL in Z-stacks that were 4 μm apart at 128×128 pixel resolution (22 stacks total, green channel only for the orco-T2A-QF2-QUAS-GCaMP 6f strain; 28 stacks, green and red channels for the brp>jGCaMP7s strain). […] Laser power as measured at the sample plane was 10 mW. […]

[2] = test system: human-sensitive (H) glomerulus of the antennal lobe; test: Two-photon calcium imaging of odour-evoked activity in the human-sensitive (H) glomerulus; format: in vivo, Aedes aegypti; conditions: for response of H glomerulus: panel of 50 single odorants at approximately the same vapour-phase concentration (that of sulcatone in 1× human odour)
From the text: as §1, §2
(§3) We used the ScanImage^72 package in Matlab to control the microscope and acquire images. For each individual, we chose either the right or left antennal lobe (AL) and recorded movies of odour-evoked activity (starting 7-30 sec before and continuing 20-60 sec after synthetic-odorant puffs; ˜30 sec before, ˜140 sec after puffs of complex extract). The movies covered the entire AL in Z-stacks that were 4 μm apart at 128×128 pixel resolution (22 stacks total, green channel only for the orco-T2A-QF2-QUAS-GCaMP 6f strain; 28 stacks, green and red channels for the brp>jGCaMP7s strain). The resulting voxel size was approximately 0.9×0.8×4 μm^3, and the volumetric imaging rate was 3.76 Hz for the orco-T2A-QF2-QUAS-GCaMP 6f strain and 2.95 Hz for the brp>jGCaMP7s strain. We increased the laser power exponentially with depth (ranging from 7.5 to 10 mW) to account for light decay and scattering in deeper tissues. Laser power as measured at the sample plane was 10 mW. After recording odour-evoked activity, we acquired 30-40 high-resolution structural volumes at high laser power to aid registration and downstream analysis. For this, we imaged the AL in 120-180 z-stacks, 1 μm apart, at 256×256 pixel resolution.
The three target glomeruli could be reliably identified across brains based on position and responses to key reference odorants. Human-sensitive glomerulus H was located in the anterior AL, adjacent to a landmark non-Orco glomerulus in our two-photon images (unlabeled area surrounded by Orco+ glomeruli; FIGS. 8A-B), and responded to 10^−2 heptanal. Animal-sensitive glomerulus A was located in the dorsal AL and responded to 10^−2 phenol. Broadly tuned glomerulus B was located in the posterior-medial AL and responded to 10^−2 benzaldehyde. Glomeruli H, A, and B tentatively correspond to V3, MD2, and PD1, respectively, in a previously published atlas^35, but we cannot be sure without molecular markers.
We used area under df/f curves as a metric for neural activity. For single-odorant stimuli, which evoked single df/f peaks, we defined the peak boundaries by first locating the max (for activation) or min (for inhibition) points in the df/f curve and then extending from the max/min point until df/f dropped to background levels. For natural odour extracts, which sometimes evoked multiple peaks, we integrated df/f values from desorption of the focusing trap to the end of neural recording (0 to 140 sec). […]

[3] = test system: animal-sensitive (A) glomerulus of the antennal lobe; test: Two-photon calcium imaging of odour-evoked activity in the animal-sensitive (A) glomerulus; format: in vivo, Aedes aegypti; conditions: for activation of A glomerulus: panel of 50 single odorants at approximately the same vapour-phase concentration
From the text: We designed a two-photon microscope that incorporates both resonant scanning^69 and remote focusing^70,71 to achieve rapid, volumetric, in vivo neural imaging. Remote focusing allows rapid switching of the imaging plane by moving a small, lightweight mirror located upstream in the imaging path.
as §2, §3
We used area under df/f curves as a metric for neural activity. For single-odorant stimuli, which evoked single df/f peaks, we defined the peak boundaries by first locating the max (for activation) or min (for inhibition) points in the df/f curve and then extending from the max/min point until df/f dropped to background levels. For natural odour extracts, which sometimes evoked multiple peaks, we integrated df/f values from desorption of the focusing trap to the end of neural recording (0 to 140 sec).

[4] = test system: Orco+ glomeruli of the antennal lobe; test: Two-photon calcium imaging of odour-evoked activity across Orco+ glomeruli; format: in vivo, Aedes aegypti
From the text: as §1
We custom-designed a mosquito holder with a 3D-printed plastic frame and thin stainless-steel plate (FIG. 2C, thickness 0.001 inch). A tiny mosquito-head-sized hole was photo-chemically etched on the plate (ETCHIT Company). To prepare for imaging, we anaesthetized a female on ice for ˜1 min, pushed the anterodorsal side of her head into the hole, and fixed it with UV glue (RapidFix 6121830ES). The antennae, maxillary palps, and proboscis remained below the metal plate and contacted neither the plate nor the glue. […]
We used the ScanImage^72 package in Matlab to control the microscope and acquire images. For each individual, we chose either the right or left antennal lobe (AL) and recorded movies of odour-evoked activity (starting 7-30 sec before and continuing 20-60 sec after synthetic-odorant puffs; ˜30 sec before, ˜140 sec after puffs of complex extract). […] Laser power as measured at the sample plane was 10 mW. […]

[5] = test system: female Aedes aegypti mosquitoes; test: Two-port olfactometer host-preference assay; format: in vivo; conditions: in the absence of human or animal odour
Description: We tested the host preference of mated, non-blood-fed, 7-14 day old females that had been housed overnight with access to water only (no sucrose). We used a two-port olfactometer for choice and no-choice tests involving live hosts (FIGS. 1A and C) or sleeves/hair (FIGS. 1B and D) as previously described3. We first acclimated 75-100 female mosquitoes in the olfactometer for 5 min, then opened a sliding door and activated a fan to pull air through the two host chambers and expose mosquitoes to host odour. Mosquitoes were able to fly upwind, sample the host-odour streams, and choose to enter either host port. After 6 min, we counted the number of mosquitoes trapped in each host port. For two-choice trials with live hosts, one chamber contained a human hand and arm up to the elbow (belonging to one of six 22-43 year old individuals: 3 female, 3 male; 3 Caucasian, 2 East Asian, 1 South Asian). The human exhaled gently near the opening of the chamber once every 30 sec to provide a source of breath. The other chamber contained a guinea pig (Cavia porcellus; one of two 4-5 year old pigmented females), rat (Rattus norvegicus domesticus; one of two 2-6 month old Sprague-Dawley males), or button quail (Coturnix coturnix; one 2-3 year old female). […]

[6] = concentrations calibrated to about ⅕th of activity evoked by 1× human odour, paraffin oil
[7] = synthetic odorants singly or as combo, vapour-phase concentrations characteristic of 1× human odour, 3-sec puffs

In the case of `CCCCCCO` [1-hexanol], the “activity evoked in B glomerulus” value [1, 6] is reported as “evoked activity in their cognate glomeruli”.

In the case of `CCCCCCCCCC=O` [Decanal], the “activity evoked in H glomerulus” value [2, 6] is reported as “evoked activity in their cognate glomeruli” and the “activity evoked in H glomerulus” value [2, 7] is reported as “strong and prolonged activity”.

With `CC(=O)C(C)O` (stereo not shown) [acetoin] the “activation of B glomerulus” value ([1]; synthetic odorants singly or as combo, vapour-phase concentrations characteristic of 1× human odour) was “strongly activated”, the “activation of A glomerulus” value [3] was “strongly activated” and the “activity evoked in A glomerulus” value ([3]; physiological concentrations (as in 1× human odour)) was “too low to evoke consistent activity”.

`O=Cc1ccccc1` [benzaldehyde] was tested, and the “response of B glomerulus to reference odorant” value ([1]; 10^−2 dilution) was “responded”.

In the case of `CS(C)(=O)=O` [dimethyl sulfone], the “activation of A glomerulus” value [3] is reported as “strongly activated”.

For `CCCCCCC=O` [heptanal], the “response of H glomerulus to reference odorant” value ([2]; 10^−2 dilution) was “responded”.

In the case of `CCCCCC=O` [hexanal], the “response of H glomerulus” value [2] is reported as “no response”.

In the case of `Cc1ccc(O)cc1` [p-cresol], the “activation of A glomerulus” value [3] is reported as “strongly activated”.

`Oc1ccccc1` [phenol] was tested, and the “response of A glomerulus to reference odorant” value ([3]; 10^−2 dilution) was “responded” and the “activation of A glomerulus” value [3] was “strongly activated”.

For `CC(=O)CCC=C(C)C` [sulcatone], the “glomerular activity in response to the compound” value ([4]; at its concentration in 1× human odour) was “did not see consistent activity” and the “glomerular activity in response to the compound” value ([4]; higher doses (data not shown)) was “several glomeruli responded”.

With `O=C=O` [synthetic CO2, CO2] the “response of female mosquitoes in no-choice olfactometer trials” value [5] was “minimal”.

In the case of `CCCCCCCCCCC=O` [undecanal], the “response of H glomerulus” value [2] is reported as “strong activity”, the “duration of H glomerulus activity beyond the 3-second puff” value ([2]; single odorant at equal vapour-phase concentration) is reported as at least 40 s and the “activity evoked in H glomerulus” value [2, 7] is reported as “strong and prolonged activity”.
